According to ChEMBL document CHEMBL3769377, “A synthesis, in silico, in vitro and in vivo study of thieno[2,3-b]pyridine anticancer analogues” (Medchemcomm, 2015):

Experiments:
[1] = molecular target: Insulin receptor (Homo sapiens) (UniProt P06213); experiment: Inhibition of human recombinant INSR assessed as residual activity at 10 uM after 1 hr by qPCR analysis relative to control
[2] = molecular target: Mitogen-activated protein kinase 8 (Homo sapiens) (UniProt P45983); experiment: Inhibition of human recombinant JNK1 assessed as residual activity at 10 uM after 1 hr by qPCR analysis relative to control
[3] = molecular target: Mitogen-activated protein kinase 10 (Homo sapiens) (UniProt P53779); experiment: Inhibition of human recombinant JNK3 assessed as residual activity at 10 uM after 1 hr by qPCR analysis relative to control
Sequence of Mitogen-activated protein kinase 10 (Homo sapiens) (P53779 whole entry): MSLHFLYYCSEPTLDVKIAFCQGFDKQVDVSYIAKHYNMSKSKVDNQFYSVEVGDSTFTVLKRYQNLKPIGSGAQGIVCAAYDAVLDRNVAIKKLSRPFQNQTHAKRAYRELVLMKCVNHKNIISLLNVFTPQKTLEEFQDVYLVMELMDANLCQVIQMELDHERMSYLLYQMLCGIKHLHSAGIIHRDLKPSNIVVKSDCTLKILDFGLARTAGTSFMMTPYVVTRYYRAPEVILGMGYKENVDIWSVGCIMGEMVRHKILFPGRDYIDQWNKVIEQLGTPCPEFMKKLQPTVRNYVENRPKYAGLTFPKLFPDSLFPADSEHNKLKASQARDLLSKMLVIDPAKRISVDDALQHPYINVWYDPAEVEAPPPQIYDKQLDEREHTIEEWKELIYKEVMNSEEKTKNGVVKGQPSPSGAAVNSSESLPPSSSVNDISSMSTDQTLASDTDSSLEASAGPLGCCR

[4] = molecular target: Serine/threonine-protein kinase PAK 4 (Homo sapiens) (UniProt O96013); experiment: Inhibition of human recombinant PAK4 assessed as residual activity at 10 uM after 1 hr by qPCR analysis relative to control
Sequence of Serine/threonine-protein kinase PAK 4 (Homo sapiens) (O96013 whole entry, looked up): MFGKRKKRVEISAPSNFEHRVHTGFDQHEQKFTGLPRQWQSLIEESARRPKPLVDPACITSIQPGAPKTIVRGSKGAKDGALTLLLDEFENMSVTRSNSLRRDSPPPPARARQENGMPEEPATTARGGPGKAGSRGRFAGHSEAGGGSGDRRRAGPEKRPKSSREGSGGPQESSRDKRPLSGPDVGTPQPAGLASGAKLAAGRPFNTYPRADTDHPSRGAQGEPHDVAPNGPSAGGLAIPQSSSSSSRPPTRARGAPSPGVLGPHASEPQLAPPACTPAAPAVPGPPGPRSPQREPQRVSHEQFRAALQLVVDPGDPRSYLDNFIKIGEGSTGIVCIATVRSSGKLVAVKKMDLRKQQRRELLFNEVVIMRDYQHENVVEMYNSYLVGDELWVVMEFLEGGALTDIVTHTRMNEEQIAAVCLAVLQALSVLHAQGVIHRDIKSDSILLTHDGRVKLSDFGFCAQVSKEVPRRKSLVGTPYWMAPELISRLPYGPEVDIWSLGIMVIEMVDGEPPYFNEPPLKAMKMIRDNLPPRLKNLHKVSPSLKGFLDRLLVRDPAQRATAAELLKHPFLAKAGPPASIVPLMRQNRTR

[5] = molecular target: 3-phosphoinositide-dependent protein kinase 1 (Homo sapiens) (UniProt O15530); experiment: Inhibition of human recombinant PDPK1 assessed as residual activity at 10 uM after 1 hr by qPCR analysis relative to control
[6] = molecular target: Phosphatidylinositol 4,5-bisphosphate 3-kinase catalytic subunit alpha isoform (Homo sapiens) (UniProt P42336); experiment: Inhibition of human recombinant PIK3CA assessed as residual activity at 10 uM after 1 hr by qPCR analysis relative to control
[7] = molecular target: Serine/threonine-protein kinase PLK4 (Homo sapiens) (UniProt O00444); experiment: Inhibition of human recombinant PLK4 assessed as residual activity at 10 uM after 1 hr by qPCR analysis relative to control
Sequence of Serine/threonine-protein kinase PLK4 (Homo sapiens) (O00444 whole entry): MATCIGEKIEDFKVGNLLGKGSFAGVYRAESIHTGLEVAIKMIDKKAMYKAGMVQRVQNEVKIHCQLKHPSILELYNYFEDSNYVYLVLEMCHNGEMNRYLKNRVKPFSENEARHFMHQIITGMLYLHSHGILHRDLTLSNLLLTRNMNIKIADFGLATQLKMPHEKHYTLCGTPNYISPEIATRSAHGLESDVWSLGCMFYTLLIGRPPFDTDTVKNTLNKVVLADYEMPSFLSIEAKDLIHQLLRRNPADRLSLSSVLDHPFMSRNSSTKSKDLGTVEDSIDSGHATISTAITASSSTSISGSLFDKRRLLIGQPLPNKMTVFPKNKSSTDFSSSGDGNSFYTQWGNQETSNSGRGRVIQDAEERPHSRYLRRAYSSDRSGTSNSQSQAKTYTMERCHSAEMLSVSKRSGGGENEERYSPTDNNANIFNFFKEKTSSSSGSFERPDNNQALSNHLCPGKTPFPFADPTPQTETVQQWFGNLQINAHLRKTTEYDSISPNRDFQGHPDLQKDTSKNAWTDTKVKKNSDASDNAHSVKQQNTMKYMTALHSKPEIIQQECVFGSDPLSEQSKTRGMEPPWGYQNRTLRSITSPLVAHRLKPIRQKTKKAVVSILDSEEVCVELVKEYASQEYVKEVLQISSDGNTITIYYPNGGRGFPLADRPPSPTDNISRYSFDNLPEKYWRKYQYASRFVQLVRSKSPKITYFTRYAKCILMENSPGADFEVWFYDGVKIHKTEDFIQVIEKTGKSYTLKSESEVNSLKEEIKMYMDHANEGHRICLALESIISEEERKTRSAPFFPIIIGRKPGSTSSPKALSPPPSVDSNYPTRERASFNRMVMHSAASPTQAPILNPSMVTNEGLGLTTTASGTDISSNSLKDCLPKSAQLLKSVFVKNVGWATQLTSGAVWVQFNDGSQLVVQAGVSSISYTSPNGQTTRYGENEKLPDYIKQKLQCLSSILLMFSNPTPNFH

[8] = molecular target: Rho-associated protein kinase 2 (Homo sapiens) (UniProt O75116); experiment: Inhibition of human recombinant ROCK2 assessed as residual activity at 10 uM after 1 hr by qPCR analysis relative to control
Sequence of Rho-associated protein kinase 2 (Homo sapiens) (O75116 whole entry, looked up): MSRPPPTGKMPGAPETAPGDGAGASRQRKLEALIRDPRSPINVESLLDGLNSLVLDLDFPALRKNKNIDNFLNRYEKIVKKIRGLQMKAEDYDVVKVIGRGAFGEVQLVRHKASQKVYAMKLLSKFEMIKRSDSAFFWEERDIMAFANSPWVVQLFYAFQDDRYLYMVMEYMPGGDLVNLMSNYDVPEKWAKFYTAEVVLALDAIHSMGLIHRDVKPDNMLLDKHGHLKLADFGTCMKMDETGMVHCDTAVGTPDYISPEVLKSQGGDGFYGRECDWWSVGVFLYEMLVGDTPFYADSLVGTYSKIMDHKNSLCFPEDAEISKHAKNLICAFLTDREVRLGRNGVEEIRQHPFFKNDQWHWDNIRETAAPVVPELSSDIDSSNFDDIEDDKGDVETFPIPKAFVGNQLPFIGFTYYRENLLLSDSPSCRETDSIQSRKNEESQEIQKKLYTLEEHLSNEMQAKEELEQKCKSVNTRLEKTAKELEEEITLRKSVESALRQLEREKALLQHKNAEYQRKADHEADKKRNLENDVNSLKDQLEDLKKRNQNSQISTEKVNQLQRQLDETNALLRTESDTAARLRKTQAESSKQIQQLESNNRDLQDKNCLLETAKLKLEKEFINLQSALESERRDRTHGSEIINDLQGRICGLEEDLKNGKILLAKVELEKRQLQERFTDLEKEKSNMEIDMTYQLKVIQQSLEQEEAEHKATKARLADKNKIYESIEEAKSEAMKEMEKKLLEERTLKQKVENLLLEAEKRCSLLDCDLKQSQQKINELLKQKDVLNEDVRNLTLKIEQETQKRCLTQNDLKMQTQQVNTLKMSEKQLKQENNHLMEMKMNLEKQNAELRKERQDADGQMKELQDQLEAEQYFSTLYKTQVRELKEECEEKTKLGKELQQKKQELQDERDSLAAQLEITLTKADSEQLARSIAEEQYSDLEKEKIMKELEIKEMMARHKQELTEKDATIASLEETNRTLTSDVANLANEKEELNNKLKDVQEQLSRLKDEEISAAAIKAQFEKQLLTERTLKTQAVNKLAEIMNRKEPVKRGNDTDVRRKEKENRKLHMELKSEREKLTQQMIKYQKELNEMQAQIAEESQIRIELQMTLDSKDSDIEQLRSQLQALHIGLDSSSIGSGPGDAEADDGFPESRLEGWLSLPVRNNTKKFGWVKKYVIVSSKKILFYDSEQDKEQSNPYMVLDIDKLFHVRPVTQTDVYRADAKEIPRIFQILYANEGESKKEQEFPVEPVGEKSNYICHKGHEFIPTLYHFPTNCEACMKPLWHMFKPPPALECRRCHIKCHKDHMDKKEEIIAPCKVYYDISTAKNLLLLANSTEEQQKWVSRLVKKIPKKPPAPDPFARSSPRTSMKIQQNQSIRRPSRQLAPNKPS

[9] = molecular target: TGF-beta receptor type-1 (Homo sapiens) (UniProt P36897); experiment: Inhibition of human recombinant TGFBR1 assessed as residual activity at 10 uM after 1 hr by qPCR analysis relative to control
[10] = molecular target: Activin receptor type-1B (Homo sapiens) (UniProt P36896); experiment: Inhibition of human recombinant ACVR1B assessed as residual activity at 10 uM after 1 hr by qPCR analysis relative to control
[11] = molecular target: Atypical kinase COQ8A, mitochondrial (Homo sapiens) (UniProt Q8NI60); experiment: Inhibition of human recombinant ADCK3 assessed as residual activity at 10 uM after 1 hr by qPCR analysis relative to control
Sequence of Atypical kinase COQ8A, mitochondrial (Homo sapiens) (Q8NI60 163-647 limits assumed): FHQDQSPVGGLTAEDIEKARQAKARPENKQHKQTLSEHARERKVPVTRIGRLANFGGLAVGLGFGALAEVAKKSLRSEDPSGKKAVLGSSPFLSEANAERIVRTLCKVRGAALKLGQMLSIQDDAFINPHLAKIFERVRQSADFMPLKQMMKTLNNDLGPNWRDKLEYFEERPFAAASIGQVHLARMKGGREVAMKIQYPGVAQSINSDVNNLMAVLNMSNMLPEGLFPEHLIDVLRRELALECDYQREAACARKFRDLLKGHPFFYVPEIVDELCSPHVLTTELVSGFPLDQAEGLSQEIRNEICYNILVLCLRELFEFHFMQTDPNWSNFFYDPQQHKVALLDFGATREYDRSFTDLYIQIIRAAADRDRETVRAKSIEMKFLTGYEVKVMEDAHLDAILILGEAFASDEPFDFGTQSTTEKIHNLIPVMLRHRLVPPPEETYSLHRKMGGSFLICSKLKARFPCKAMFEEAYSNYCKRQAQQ

[12] = molecular target: Serine/threonine-protein kinase B-raf (Homo sapiens) (UniProt P15056); experiment: Inhibition of human recombinant BRAF assessed as residual activity at 10 uM after 1 hr by qPCR analysis relative to control
Sequence of Serine/threonine-protein kinase B-raf (Homo sapiens) (P15056 whole entry): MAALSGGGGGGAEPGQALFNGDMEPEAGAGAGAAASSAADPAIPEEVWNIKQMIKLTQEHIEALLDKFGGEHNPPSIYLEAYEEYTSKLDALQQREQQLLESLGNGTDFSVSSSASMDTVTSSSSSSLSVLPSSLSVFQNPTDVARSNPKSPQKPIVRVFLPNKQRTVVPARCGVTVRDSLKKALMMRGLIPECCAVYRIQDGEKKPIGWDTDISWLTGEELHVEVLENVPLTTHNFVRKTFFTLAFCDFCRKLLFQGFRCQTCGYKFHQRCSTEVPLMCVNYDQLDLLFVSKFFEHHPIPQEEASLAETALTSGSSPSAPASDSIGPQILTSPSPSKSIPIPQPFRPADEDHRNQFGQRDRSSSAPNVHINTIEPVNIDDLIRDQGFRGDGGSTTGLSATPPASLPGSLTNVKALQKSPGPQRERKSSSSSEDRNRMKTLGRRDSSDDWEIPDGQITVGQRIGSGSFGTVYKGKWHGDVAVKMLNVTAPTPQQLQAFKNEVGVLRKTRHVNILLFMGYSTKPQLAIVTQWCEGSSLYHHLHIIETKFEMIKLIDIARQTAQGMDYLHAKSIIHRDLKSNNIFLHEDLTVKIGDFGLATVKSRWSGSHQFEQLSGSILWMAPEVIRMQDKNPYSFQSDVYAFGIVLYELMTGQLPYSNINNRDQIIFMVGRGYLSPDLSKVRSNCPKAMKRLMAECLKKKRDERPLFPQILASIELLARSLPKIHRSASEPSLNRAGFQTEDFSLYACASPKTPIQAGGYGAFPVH

SMILES: Cc1c(Cl)cccc1NC(=O)c1sc2nc3c(cc2c1N)C(=O)CC3
- Activity [1]: 97%
- Activity [2]: 100%
- Activity [3]: 95%
- Activity [4]: 85%
- Activity [5]: 100%
- Activity [6]: 100%
- Activity [7]: 100%
- Activity [8]: 100%
- Activity [9]: 100%
- Activity [10]: 100%
- Activity [11]: 96%
- Activity [12]: 96%
